Strand notation (5' to 3'): a small letter for the sugar, then the base; units joined by * are phosphorothioate-linked, units joined directly phosphodiester-linked; [ ] holds rarer units or linkages, { } end groups; capitals alone tell only the bases. e = 2'-O-(2-methoxyethyl) (MOE); [5mC] = 5-methylcytosine; d = 2'-deoxy (DNA)
Legend:
Assay type in all cases: in vivo, mouse
GCGR mRNA = GCGR mRNA levels in liver and estimated ED50, C57/BL6 mice, single i.p. dose (Example 5, Tables 44, 45)
Method: Eight-week old male C57/BL6 mice (Jackson Laboratory, Bar Harbor, Me.) were administered a single dose of GCGR antisense compound by intraperitonel (i.p.) injection at a concentration of 10, 3.2, 1, and 0.32 μmol·kg. Each dose group consisted of four animals. Shown in Table 43 are the sequences, motifs and conjugates of the GCGR antisense compounds used in this study. Bolded residues indicate 2′-O-methoxyethyl (2′-MOE) modifications and the italicized residues indicate methyleneoxy (4′-CH2—O-2′) BNA modifications. All antisense compounds comprise phosphorothioate internucleoside linkages throughout and each cytosine is replaced with 5-methylcytosine. GCGR antisense compounds target published GCGR nucleic acids, including Genbank Accession No. BC031885.1 (SEQ ID NO: 7).
To determine whether the phenotypic changes shown above correlated with a decrease in GCGR mRNA, treated animals were evaluated for levels of target mRNA in liver by RT, real time PCR according to methods described herein. Table 44 show results from direct comparisons of the antisense compounds targeting GCGR nucleic acid for their effect on target expression. Results are expressed as percent of saline control.

ApoB mRNA = ApoB mRNA level in liver of Balb/c mice, i.p. twice per week for three weeks (Example 3, Table 29); conditions: for ApoB mRNA level: Table 30 (rounded); for % ApoB mRNA Level (relative to saline control): liver
Method: Prior to quantitative PCR analysis, primer-probe sets specific to the target gene being measured were evaluated for their ability to be “multiplexed” with a GAPDH amplification reaction. After isolation the RNA is subjected to sequential reverse transcriptase (RT) reaction and real-time PCR, both of which are performed in the same well. RT and PCR reagents were obtained from Invitrogen Life Technologies (Carlsbad, Calif.). […] The RT reaction was carried out by incubation for 30 minutes at 48° C. Following a 10 minute incubation at 95° C. to activate the […]® Taq, 40 cycles of a two-step PCR protocol were carried out: 95° C. for 15 seconds (denaturation) followed by 60° C. for 1.5 minutes (annealing/extension).
(§1) Antisense compound doses included 2.4, 1.2, 0.6, 0.3 and 0.15 μmol/kg. For antisense compounds 14 nucleotides in length, these doses equate to approximately 12, 6, 3, 1.5 or 0.75 mg/kg, respectively. Shown in Table 25 are the sequences and motifs of the antisense compounds used in this study. […] Bolded residues indicate 2′-O-methoxyethyl moieties and italicized residues indicate methyleneoxy (4′-CH2—O-2′) BNAs. The internucleoside linkages of each compound are phosphorothioate throughout. All cytosine residues of ISIS 147764 and ISIS 372938 are replaced by 5-methyl cytosines. For ISIS 387462, only the cytosine residue in the wing of the compound is replaced by 5-methyl cytosine. ApoB antisense compounds are targeted to publicly available ApoB-100 sequences, including Genbank Accession No. XM—137955.5 (SEQ ID NO: 2).
(§2) Forty-eight hours following the final injection, mice were sacrificed to evaluate transaminases (Table 26); liver and kidney weight (Table 27); triglyceride, LDL, HDL and free fatty acid levels (Table 28); target mRNA level in liver (Table 29); target protein level in plasma; and oligonucleotide tissue concentration (Table 30). These endpoints were determined using methods described herein and well known to those of ordinary skill in the art.

[1] = Full-length and total antisense compound tissue concentration in liver and kidney (Example 3, Table 30); conditions: Balb/c mice, 2.4 μmol/kg i.p. twice per week for three weeks
Method: as §1, §2
To determine whether the observed increase in efficiency with the methyleneoxy (4′-CH2—O-2′) BNA gapmer is due to an increase in oligonucleotide accumulation, full-length and total oligonucleotide concentration in the liver and kidney were determined.

[2] = Liver and kidney weight, total body weight and food consumption (Example 3, Table 27); conditions: Balb/c mice
Method: as §1, §2

[3] = Triglyceride, total cholesterol, HDL, LDL, free fatty acid and glucose levels (Example 3, Table 28); parameters: Free Fatty Acid (FFA): unit not given here; conditions: Balb/c mice
Method: as §1, §2
Glucose levels also were similar among all treatment groups.

[4] = ALT and AST levels, Balb/c mice (Example 3, Table 26); conditions: 48 h after final injection
Method: as §1, §2

[5] = 2.4 μmol/kg i.p. twice per week for three weeks
[6] = 0.15 μmol/kg i.p. twice per week for three weeks
[7] = 0.3 μmol/kg i.p. twice per week for three weeks
[8] = 0.6 μmol/kg i.p. twice per week for three weeks
[9] = 1.2 μmol/kg i.p. twice per week for three weeks

396147 (antisense e[5mC]*eT*eT*eG*eG*dG*d[5mC]*dA*dT*dG*d[5mC]*dT*d[5mC]*dG*dT*e[5mC]*eA*eG*eT*e[5mC]) [compound 396147]
GCGR mRNA levels in liver (GCGR mRNA; 3.2 μmol/kg single i.p.): 68% of saline control
GCGR mRNA levels in liver (GCGR mRNA; 10 μmol/kg single i.p.): 28% of saline control

147764 (antisense eG*eT*e[5mC]*e[5mC]*e[5mC]*dT*dG*dA*dA*dG*dA*dT*dG*dT*d[5mC]*eA*eA*eT*eG*e[5mC]) [compound 147764]
ApoB mRNA level (ApoB mRNA; [5]): 58 % of saline control
% ApoB mRNA Level (relative to saline control) (ApoB mRNA; [5]): 57.7%
Kidney Full-Length antisense compound tissue concentration [1]: 28.6 µM
Kidney Total antisense compound tissue concentration [1]: 33.5 µM
Liver Full-Length antisense compound tissue concentration [1]: 22.9 µM
Liver Total antisense compound tissue concentration [1]: 31.3 µM
Kidney Weight [2, 5]: 105 % of saline control
Liver Weight [2, 5]: 102 % of saline control
Free Fatty Acid (FFA) [3, 5]: 1.29
HDL [3, 5]: 81.3 mg/dL
LDL [3, 5]: 10.3 mg/dL
Total Cholesterol (CHOL) [3, 5]: 107 mg/dL
Triglyceride (TRIG) [3, 5]: 167 mg/dL
ALT [4, 5]: 29.5 IU/L
AST [4, 5]: 64.0 IU/L

396145 (antisense eA*eT*eG*eG*e[5mC]*dT*dT*d[5mC]*dT*d[5mC]*d[5mC]*dA*dT*d[5mC]*dA*eT*eA*eT*e[5mC]*e[5mC]) [compound 396145]
GCGR mRNA levels in liver (GCGR mRNA; 3.2 μmol/kg single i.p.): 33% of saline control
GCGR mRNA levels in liver (GCGR mRNA; 10 μmol/kg single i.p.): 8% of saline control

372938 (antisense eG*eG*dT*dA*d[5mC]*dA*dT*dG*dG*dA*dA*dG*eT*e[5mC]) [compound 372938]
ApoB mRNA level (ApoB mRNA; [5]): 77 % of saline control
% ApoB mRNA Level (relative to saline control) (ApoB mRNA; [6]): 93.1%
% ApoB mRNA Level (relative to saline control) (ApoB mRNA; [7]): 92.6%
% ApoB mRNA Level (relative to saline control) (ApoB mRNA; [8]): 87.3%
% ApoB mRNA Level (relative to saline control) (ApoB mRNA; [9]): 90.0%
% ApoB mRNA Level (relative to saline control) (ApoB mRNA; [5]): 77.0%
Kidney Full-Length antisense compound tissue concentration [1]: 32.0 µM
Kidney Total antisense compound tissue concentration [1]: 34.0 µM
Liver Full-Length antisense compound tissue concentration [1]: 5.49 µM
Liver Total antisense compound tissue concentration [1]: 7.76 µM
Kidney Weight [2, 6]: 98 % of saline control
Liver Weight [2, 6]: 96 % of saline control
Kidney Weight [2, 7]: 107 % of saline control
Liver Weight [2, 7]: 91 % of saline control
Kidney Weight [2, 8]: 112 % of saline control
Liver Weight [2, 8]: 96 % of saline control
Kidney Weight [2, 9]: 101 % of saline control
Liver Weight [2, 9]: 90 % of saline control
Kidney Weight [2, 5]: 100 % of saline control
Liver Weight [2, 5]: 100 % of saline control
Free Fatty Acid (FFA) [3, 6]: 1.57
HDL [3, 6]: 82.8 mg/dL
LDL [3, 6]: 10.8 mg/dL
Total Cholesterol (CHOL) [3, 6]: 106 mg/dL
Triglyceride (TRIG) [3, 6]: 151 mg/dL
Free Fatty Acid (FFA) [3, 7]: 1.53
HDL [3, 7]: 84.3 mg/dL
LDL [3, 7]: 11.0 mg/dL
Total Cholesterol (CHOL) [3, 7]: 109 mg/dL
Triglyceride (TRIG) [3, 7]: 138 mg/dL
Free Fatty Acid (FFA) [3, 8]: 1.66
HDL [3, 8]: 83.3 mg/dL
LDL [3, 8]: 10.8 mg/dL
Total Cholesterol (CHOL) [3, 8]: 110 mg/dL
Triglyceride (TRIG) [3, 8]: 184 mg/dL
Free Fatty Acid (FFA) [3, 9]: 1.70
HDL [3, 9]: 77.8 mg/dL
LDL [3, 9]: 9.5 mg/dL
Total Cholesterol (CHOL) [3, 9]: 101 mg/dL
Triglyceride (TRIG) [3, 9]: 136 mg/dL
Free Fatty Acid (FFA) [3, 5]: 1.28
HDL [3, 5]: 79.0 mg/dL
LDL [3, 5]: 10.3 mg/dL
Total Cholesterol (CHOL) [3, 5]: 104 mg/dL
Triglyceride (TRIG) [3, 5]: 153 mg/dL
ALT [4, 6]: 28.3 IU/L
AST [4, 6]: 50.3 IU/L
ALT [4, 7]: 28.3 IU/L
AST [4, 7]: 60.0 IU/L
ALT [4, 8]: 28.0 IU/L
AST [4, 8]: 79.3 IU/L
ALT [4, 9]: 24.8 IU/L
AST [4, 9]: 49.5 IU/L
ALT [4, 5]: 26.0 IU/L
AST [4, 5]: 49.0 IU/L
